Like-named read-outs stand apart in the source and are kept apart here.
Legend:
[1] = biological target: Syk kinase (Homo sapiens, UniProt P43405); test: Syk kinase enzymatic assay (Kit-Tyr 2 Peptide); type: biochemical
[2] = test system: RBL-2H3 cells; test: IgE-induced Beta-hexosaminidase secretion in RBL-2H3 cells; type: cell-based; conditions: Rattus norvegicus
[3] = 8 concentrations, 1 μM down to 0.0003 μM, upper bound of each range is 'less than', read-out: IC50: Enzymatic Activity (Syk kinase)
[4] = RBL-2H3, RBL-2H3 cells sensitized with SPE-7, stimulated with DNP-BSA, upper bound of each range is 'less than', read-out: IC50, IgE-induced Beta-hexosaminidase secretion

SMILES	IC50 [1, 3]	IC50 [2, 4]	IC50 [1]	IC50 ([2]; RBL-2H3, read-out: IC50, IgE-induced Beta-hexosaminidase secretion)
CN(c1ccc(-c2cc3nccnc3c(NCC3CNCCC3(F)F)n2)cc1)S(C)(=O)=O (centres unmarked) [Compound 313]	0.001 to 0.1 µM	0.001 to 0.1 µM		
FC1(F)CCNCC1CNc1nc(-c2cnn(C3CCOCC3)c2)cc2nccnc12 (centres unmarked) [Compound 314]	0.001 to 0.1 µM	0.001 to 0.1 µM		
OCCn1cc(-c2cc3nccnc3c(NCC3CNCCC3(F)F)n2)cn1 (centres unmarked) [Compound 315]	0.001 to 0.1 µM	0.001 to 0.1 µM		
CC(=O)N1CCN(c2ccc(-c3cc4nccnc4c(NCC4CNCCC4(F)F)n3)cn2)CC1 (centres unmarked) [Compound 316]	0.001 to 0.1 µM	0.001 to 0.1 µM		
CC(=O)N1CCN(c2ccc(-c3cc4nccnc4c(NCC4CNCCC4(F)F)n3)cc2F)CC1 (centres unmarked) [Compound 318]	0.001 to 0.1 µM	0.001 to 0.1 µM		
CC(=O)N1CCC(n2cc(-c3cc4nccnc4c(NCC4CNCCC4(F)F)n3)cn2)CC1 (centres unmarked) [Compound 320]	0.001 to 0.1 µM	0.001 to 0.1 µM		
CS(=O)(=O)N1CCC(n2cc(-c3cc4nccnc4c(NCC4CNCCC4(F)F)n3)cn2)CC1 (centres unmarked) [Compound 321]	0.001 to 0.1 µM	0.001 to 0.1 µM		
O=C(C1CC1)N1CCO[C@H](CNc2nc(-c3ccc(N4CCOCC4)cc3)cc3nccnc23)C1 [Compound 322]	0.001 to 0.1 µM	0.1 to 1 µM		
O=C(C(F)F)N1CCO[C@H](CNc2nc(-c3ccc(N4CCOCC4)cc3)cc3nccnc23)C1 [Compound 323]	0.001 to 0.1 µM	0.001 to 0.1 µM		
N#CCC(=O)N1CCO[C@H](CNc2nc(-c3ccc(N4CCOCC4)cc3)cc3nccnc23)C1 [Compound 324]	0.001 to 0.1 µM	0.001 to 0.1 µM		
CS(=O)(=O)N1CCO[C@H](CNc2nc(-c3ccc(N4CCOCC4)cc3)cc3nccnc23)C1 [Compound 332]	0.001 to 0.1 µM	0.001 to 0.1 µM		
NS(=O)(=O)N1CCO[C@H](CNc2nc(-c3ccc(N4CCOCC4)cc3)cc3nccnc23)C1 [Compound 333]	0.001 to 0.1 µM	0.001 to 0.1 µM		
O=C(CF)N1CCO[C@H](CNc2nc(-c3ccc(N4CCOCC4)cc3)cc3nccnc23)C1 [Compound 340]			0.001 to 0.1 µM	0.001 to 0.1 µM
CCS(=O)(=O)N1CCO[C@H](CNc2nc(-c3ccc(N4CCOCC4)cc3)cc3nccnc23)C1 [Compound 346]	0.001 to 0.1 µM	0.001 to 0.1 µM		
NC(=O)N1CCO[C@H](CNc2nc(-c3ccc(N4CCOCC4)cc3)cc3nccnc23)C1 [Compound 347]	0.001 to 0.1 µM	0.001 to 0.1 µM		
CS(=O)(=O)N1CCN(c2ccc(-c3cc4nccnc4c(N4CC[C@H](CO)C4)n3)cc2)CC1 [Compound 362]	0.001 to 0.1 µM	0.001 to 0.1 µM		
Fc1cc(-c2cc3nccnc3c(NC[C@@H]3CNCCC3(F)F)n2)ccc1N1CCOCC1 [Compound 368, (S)—N-((4,4-difluoropiperidin-3-yl)methyl)-7-(3-fluoro-4-morpholinophenyl) pyrido[4,3-b]pyrazin-5-amine]	0.001 to 0.1 µM	0.001 to 0.1 µM		
Cc1cc(-c2cc3nccnc3c(NC[C@@H]3CNCCC3(F)F)n2)ccc1N1CCOCC1 [Compound 370, (S)—N-((4,4-difluoropiperidin-3-yl)methyl)-7-(3-methyl-4-morpholinophenyl) pyrido[4,3-b]pyrazin-5-amine]	0.001 to 0.1 µM	0.001 to 0.1 µM		
Cc1cc(-c2cc3nccnc3c(NC[C@H]3CNCCC3(F)F)n2)ccc1N1CCOCC1 [Compound 371, (R)—N-((4,4-difluoropiperidin-3-yl)methyl)-7-(3-methyl-4-morpholinophenyl)pyrido[4,3-b]pyrazin-5-amine]	0.001 to 0.1 µM	0.001 to 0.1 µM		
CN1CCN(c2ccc(-c3cc4nccnc4c(NC[C@@H]4CNCCC4(F)F)n3)cc2)CC1 [Compound 372, (S)—N-((4,4-difluoropiperidin-3-yl)methyl)-7-(4-(4-methylpiperazin-1-yl)phenyl)pyrido[4,3-b]pyrazin-5-amine]	0.001 to 0.1 µM	0.1 to 1 µM		

SMILES	IC50 [1, 3]	IC50 [2, 4]	IC50 [1]	IC50 ([2]; RBL-2H3, read-out: IC50, IgE-induced Beta-hexosaminidase secretion)
CN1CCN(c2ccc(-c3cc4nccnc4c(NC[C@H]4CNCCC4(F)F)n3)cc2)CC1 [Compound 373, (R)—N-((4,4-difluoropiperidin-3-yl)methyl)-7-(4-(4-methylpiperazin-1-yl)phenyl)pyrido[4,3-b]pyrazin-5-amine]	0.1 to 1 µM	0.1 to 1 µM		
FC1(F)CCNC[C@H]1CNc1nc(-c2ccc(N3CCOCC3)nc2)cc2nccnc12 [Compound 374, (S)—N-((4,4-difluoropiperidin-3-yl)methyl)-7-(6-morpholinopyridin-3-yl)pyrido[4,3-b]pyrazin-5-amine]	0.001 to 0.1 µM	0.001 to 0.1 µM		
F[C@@]1(CNc2nc(-c3ccc(N4CCOCC4)cc3)cc3nccnc23)CCCNC1 [Compound 376, (S)—N-((3-fluoropiperidin-3-yl)methyl)-7-(4-morpholinophenyl)pyrido[4,3-b]pyrazin-5-amine]	0.001 to 0.1 µM	0.001 to 0.1 µM		
CC(=O)N1CCN(c2ccc(-c3cc4nccnc4c(NC[C@@H]4CNCCC4(F)F)n3)cc2)CC1 [Compound 384, (S)-1-(4-(4-(5-((4,4-difluoropiperidin-3-yl)methylamino)pyrido[4,3-b]pyrazin-7-yl)phenyl)piperazin-1-yl)ethanone]	0.001 to 0.1 µM	0.001 to 0.1 µM		
CC(=O)N1CCN(c2ccc(-c3cc4nccnc4c(NC[C@H]4CNCCC4(F)F)n3)cc2)CC1 [Compound 385, (R)-1-(4-(4-(5-((4,4-difluoropiperidin-3-yl)methylamino)pyrido[4,3-b]pyrazin-7-yl)phenyl)piperazin-1-yl)ethanone]	0.001 to 0.1 µM	0.001 to 0.1 µM		
C[C@H]1CN(c2ccc(-c3cc4nccnc4c(NC[C@@H]4CNCCO4)n3)cc2F)CCO1 [Compound 386, 7-(3-fluoro-4-((S)-2-methylmorpholino)phenyl)-N—((S)-morpholin-2-ylmethyl)pyrido[4,3-b]pyrazin-5-amine]	0.001 to 0.1 µM	0.1 to 1 µM		
C[C@@H]1CN(c2ccc(-c3cc4nccnc4c(NC[C@@H]4CNCCO4)n3)cc2F)CCO1 [Compound 387, 7-(3-fluoro-4-((R)-2-methylmorpholino)phenyl)-N—((S)-morpholin-2-ylmethyl)pyrido[4,3-b]pyrazin-5-amine]	0.001 to 0.1 µM	0.001 to 0.1 µM		
CNC(=O)COc1ccc(-c2cc3nccnc3c(NC[C@@H]3CNCCC3(F)F)n2)cc1 [Compound 388, (S)-2-(4-(5-((4,4-difluoropiperidin-3-yl)methylamino)pyrido[4,3-b]pyrazin-7-yl)phenoxy)-N-methylacetamide]	0.001 to 0.1 µM	0.001 to 0.1 µM		
CNC(=O)COc1ccc(-c2cc3nccnc3c(NC[C@H]3CNCCC3(F)F)n2)cc1 [Compound 389, (R)-2-(4-(5-((4,4-difluoropiperidin-3-yl)methylamino)pyrido[4,3-b]pyrazin-7-yl)phenoxy)-N-methylacetamide]	0.001 to 0.1 µM	0.001 to 0.1 µM		
CS(=O)(=O)c1ccc(-c2cc3nccnc3c(NC[C@@H]3CNCCC3(F)F)n2)cc1 [Compound 390, (S)—N-((4,4-difluoropiperidin-3-yl)methyl)-7-(4-(methylsulfonyl)phenyl)pyrido[4,3-b]pyrazin-5-amine]	0.001 to 0.1 µM	0.001 to 0.1 µM		
CCn1cc(-c2cc3nccnc3c(NC[C@@H]3CNCCC3(F)F)n2)cn1 [Compound 392, (S)—N-((4,4-difluoropiperidin-3-yl)methyl)-7-(1-ethyl-1H-pyrazol-4-yl)pyrido[4,3-b]pyrazin-5-amine]	0.001 to 0.1 µM	0.001 to 0.1 µM		
CCn1cc(-c2cc3nccnc3c(NC[C@H]3CNCCC3(F)F)n2)cn1 [Compound 393, (R)—N-((4,4-difluoropiperidin-3-yl)methyl)-7-(1-ethyl-1H-pyrazol-4-yl)pyrido[4,3-b]pyrazin-5-amine]	0.1 to 1 µM	0.001 to 0.1 µM		
CN(c1ccc(-c2cc3nccnc3c(NC[C@@H]3CNCCC3(F)F)n2)cc1)S(C)(=O)=O [Compound 394, (S)—N-(4-(5-((4,4-difluoropiperidin-3-yl)methylamino)pyrido[4,3-b]pyrazin-7-yl)phenyl)-N-methylmethanesulfonamide]	0.001 to 0.1 µM	0.001 to 0.1 µM		
CN(c1ccc(-c2cc3nccnc3c(NC[C@H]3CNCCC3(F)F)n2)cc1)S(C)(=O)=O [Compound 395, (R)—N-(4-(5-((4,4-difluoropiperidin-3-yl)methylamino)pyrido[4,3-b]pyrazin-7-yl)phenyl)-N-methylmethanesulfonamide]	0.1 to 1 µM	0.001 to 0.1 µM		
C[C@H]1CN(c2ccc(-c3cc4nccnc4c(NC[C@H]4CNCCC4(F)F)n3)cc2)CCO1 [Compound 397, (R)—N-((4,4-difluoropiperidin-3-yl)methyl)-7-(4-((S)-2-methylmorpholino)phenyl)pyrido[4,3-b]pyrazin-5-amine]	0.001 to 0.1 µM	0.001 to 0.1 µM		
FC1(F)CCNC[C@H]1CNc1nc(-c2cnn(C3CCOCC3)c2)cc2nccnc12 [Compound 398, (S)—N-((4,4-difluoropiperidin-3-yl)methyl)-7-(1-(tetrahydro-2H-pyran-4-yl)-1H-pyrazol-4-yl)pyrido[4,3-b]pyrazin-5-amine]	0.001 to 0.1 µM	0.001 to 0.1 µM		
FC1(F)CCNC[C@@H]1CNc1nc(-c2cnn(C3CCOCC3)c2)cc2nccnc12 [Compound 399, (R)—N-((4,4-difluoropiperidin-3-yl)methyl)-7-(1-(tetrahydro-2H-pyran-4-yl)-1H-pyrazol-4-yl)pyrido[4,3-b]pyrazin-5-amine]	0.001 to 0.1 µM	0.001 to 0.1 µM		
O=S(=O)(C1CC1)N1CCN(c2ccc(-c3cc4nccnc4c(NC[C@@H]4CNCCO4)n3)cc2)CC1 [Compound 400, (S)-7-(4-(4-(cyclopropylsulfonyl)piperazin-1-yl)phenyl)-N-(morpholin-2-ylmethyl)pyrido[4,3-b]pyrazin-5-amine]	0.001 to 0.1 µM	0.001 to 0.1 µM		
CC(C)S(=O)(=O)N1CCN(c2ccc(-c3cc4nccnc4c(NC[C@@H]4CNCCO4)n3)cc2)CC1 [Compound 401]	0.001 to 0.1 µM	0.1 to 1 µM		
CC1(C(=O)N2CCN(c3ccc(-c4cc5nccnc5c(NC[C@@H]5CNCCO5)n4)cc3)CC2)CC1 [Compound 402]	0.001 to 0.1 µM	0.001 to 0.1 µM		

— patent publication US10052330B2, “Substituted pyrido[3,4-b]pyrazines as Syk inhibitors” (HUTCHISON MEDIPHARMA LIMITED, priority 2011, dated 2018)
